Measured values reported in patent US20170233637A1, “METHODS FOR INHIBITING METAL CORROSION” (OHIO UNIVERSITY, priority 2014, published 2017).
In brackets after ≈: the same amount, converted by molar mass. Several values for one entry are separate records, joined by “and”; a condition that tells them apart may be missing. Equal values may be shown once. Read-outs that look alike come from different tables or passages of the source.

Experiments:
[1] = Efficacy test of VCI candidates for top of the line corrosion (weight loss, ASTM G1; surface analysis); settings: for TLC rate / TLC rate (weight loss): uninhibited 1.06 mm/y; for surface of the X65 TLC specimen: 100 and 400 ppmv in the bulk, after 2 days; for TLC rate (weight loss): 2 days
Description: The temperatures of the bottom solution and gas phases were controlled by a heater, while temperature of the specimen at the top was controlled by cooling water. Through coil 20, a condenser 22 was used to prevent water and VCI vapor loss.
In the VCI efficacy test, corrosion rate of the specimen at the top (TLC rate) was measured by weight loss following the ASTM G1 standard. Sample surface was characterized by Scanning Electron Microscopy (SEM)/Energy Dispersive X-ray Spectroscopy (EDS).
1-hexanethiol, 1-decanethiol and 1-dodecanethiol were chosen based on the results in the VCI screening test, data from which will be shown below. In addition, the effect of acetic acid and MEG on the inhibition performance of the best VCI candidate was also taken into account.
For the efficacy tests of VCI candidates for TLC, 1 wt % NaCl was also prepared and purged with CO2 for 2 hours. In order to have a gas temperature of 65° C., the bottom solution was heated to 77° C. After that the selected concentration of the VCI candidates (Table 3) was added into the bulk solution. A weight loss specimen 24, after being ground (with up to 600 grit abrasive paper), was flush-mounted at the top of the experimental setup, controlling its temperature at 32° C. using cooling water. The weight loss sample and ER probe were added 0.1 hour after addition of the VCI candidate. The weight loss samples were withdrawn after 48 hours for surface analysis and weight loss measurement.
FIG. 15 indicates the conditions for the TLC tests. The temperatures at the bottom, in the vapor phase, and at the top were 77° C., 65° C., and 32° C. respectively. The experiment was performed in the CO2 environment (total pressure=1 atm).

[2] = cited from earlier work; for Solubility: at 77° C.; for Water solubility: temperature not given
[3] = VCI screening in bulk solution (BLC rate by linear polarization resistance, OCP, solution pH); settings: for inhibition properties in the tested water phase (VCI screening in bulk solution): 400 ppmv, 1 wt % NaCl
Description: Other measurements of the effectiveness of the VCI composition to inhibit corrosion may be derived from Open Circuit Potential (OCP) and Linear Polarization Resistance (Rp) experiments. In the volatile thiol screening test, a potentiostat was used to measure the Rp and the OCP of the ferrous metal sample. Corrosion rate in the water phase (BLC rate) is proportional to the corrosion current density (icorr), which was then calculated by using a B constant value of 0.026 V/decade (icorr=B/Rp/S in which S is surface area of the sample).
A three electrode system was used in which an X65 rotating cylinder electrode (1000 RPM) was the working electrode 12, a Pt wire was used as counter electrode 14, and Ag/AgCl as the reference electrode 16. A pH probe 18 was used to measure the pH of the solution before and after adding the VCI candidates. The experiments were performed at 25° C. and 1 bar total pressure (pCO2=0.96 bar).
In the VCI screening test, a potentiostat was used to measure the polarization resistance (Rp) of the X65 sample. Corrosion rate in the water phase (BLC rate) is proportional to the corrosion current density (icorr) which was then calculated by using a B constant value of 0.026 V/decade (icorr=B/Rp/S in which S is surface area of the sample).
A baseline test was performed in the absence of the VCI candidate compound. […] Dibutyl sulfide was used to compare the sulfide functional group versus the thiol functional group.
For the VCI screening tests, a 1 wt % NaCl solution was prepared and purged with CO2 for 2 hours at 25° C. before injecting the VCI candidate. […] After that the Open Circuit Potential (OCP) and Linear Polarization Resistance (LPR) were measured every 10 minutes during an exposure time of 3-4 hours. The pH of the solution was measured before and after adding the VCI candidate. Electrolyte resistance (ER) was measured by Electrochemical Impedance Spectroscopy (EIS).

[4] = cited from earlier work; for Pvapor (vapor pressure): at 25° C.; for Calculated vapor pressure: at 200° C., Yaws and Yang 1989
[5] = Solubility in water of VCI candidates; settings: at 25° C.; converted to ppm by volume using density value
[6] = carbon dioxide saturated environment; cited from earlier work
[7] = at 25° C., data from www.lookchem.com
[8] = 400 ppmv VCI added before electrode insertion, CO2 saturated 1 wt % NaCl, 25° C., baseline 2.3 mm/y

Row | Compound | Solubility limit [2, 7] [mg/L] | Solubility [2] [ppmV] | Water solubility [2] | inhibition properties in the tested water phase (VCI screening in bulk solution) [3] | Pvapor (vapor pressure) [4] | Calculated vapor pressure [4] [mmHg] | also measured
1 | CCCCCCCCCCS [1-decanethiol] | 2.14 (≈ 12.3 µM) | 24.8 | ~2.14 µg/mL | had inhibition properties | 0.06 mmHg | – | TLC rate ([1]; 1 ppmv at the bottom): 0.21 mm/y; TLC rate ([1]; 10 ppmv at the bottom): 0.12 mm/y; surface of the X65 TLC specimen [1]: fully protected; protection of the X65 specimen in the presence of acetic acid ([1]; 100 ppmv VCI with 500 ppmv acetic acid): effective in fully protecting; TLC rate (weight loss) ([1]; 400 ppmV at the bottom): 0.02 mm/y; weight loss for the calculation of corrosion rate ([1]; above the solubility limit (100 ppmv and 400 ppmv)): no measurable weight loss; average vapor phase corrosion rate ([1]; with or without 50 wt. % MEG, 400 ppmV per test matrix): around 0.04 mm/y; Solubility limit ([2]; at 32° C.): 3.63 ppmv; BLC rate [3, 8]: 0.01 mm/y; BLC rate ([3]; 400 ppmv injected after electrode insertion (X65 pre-corroded almost one hour), decreased from 2.4 mm/y): 0.05 mm/y
2 | CCCCCCCCCCCCS [1-dodecanethiol] | 0.18 (≈ 0.889 µM) | 3 | ~0.225 µg/mL | had inhibition properties | 0.007 mmHg | – | TLC rate (weight loss) ([1]; 400 ppmV at the bottom): 0.02 mm/y; Solubility [5]: 0.22 ppmV
3 | CCCCCCS [1-hexanethiol] | 177.1 (≈ 1500 µM) | 1013.0 | about 177.1 mg/L | had inhibition properties | 4.5 mmHg | – | surface of the X65 TLC specimen [1]: partially protected; TLC rate (weight loss) ([1]; 100 ppmV at the bottom): 0.11 mm/y; TLC rate, times lower than the baseline test ([1]; 100 ppmv and 400 ppmv in the bulk): 10 times; TLC rate (weight loss) ([1]; 400 ppmV at the bottom): 0.13 mm/y; localized corrosion rate ([1]; 400 ppmv in the bulk, profilometry after removing corrosion product, 2 day experiment): 1.46 mm/y; depth of the deepest pit on the surface ([1]; 400 ppmv in the bulk, profilometry, 2 day experiment): about 8 micrometers; BLC rate [3, 8]: 0.01 mm/y; Solubility [5]: 212.35 ppmV and 212.4 ppmV
4 | O=C(O)CCCCCCCCCCS [11-MUA, 11-mercaptoundecanoic acid] | – | 89 | about 13.8 mg/L | – | 3.7 × 10^−5 mmHg | – | TLC rate (weight loss) ([1]; 100 ppmV at the bottom): 0.02 mm/y
5 | OCCCCCCCCCCCS [11-Mercapto-1-undecanol] | – | – | about 10.3 mg/L | – | – | – | –
6 | CCCCCCCCCCCCCCCS [C15] | – | – | – | – | – | 26.5 | –
7 | CCCCCCCCCCCCCCCCS [C16] | – | – | – | – | – | 16.7 | –
8 | CCCCCCCCCCCCCCCCCS [C17] | – | – | – | – | – | 10.7 | –
9 | CCCCCCCCCCCCCCCCCCS [C18] | – | – | – | – | – | 6.79 | –
10 | CCCCSCCCC [Dibutyl sulfide, reference compound] | 39.4 (≈ 269 µM) | – | – | did not | – | – | BLC rate [3, 8]: did not significantly change
11 | O=C(O)CS [Thioglycolic acid] | – | – | – | – | – | – | effectiveness at inhibiting corrosion [6]: only partially effective
